Experimental data from BigSolDB 2.1.

O=[N+]([O-])c1ccc(S(=O)(=O)[O-])cc1.[Na+]
solubility (mole fraction)
Conditions	283.15 K	288.15 K	293.15 K	298.15 K	303.15 K	308.15 K	313.15 K	318.15 K	323.15 K
in THF	0.000109	0.000112	0.000117	0.000122	0.000127	0.000132	0.000138	0.000145	0.000156
in acetone	0.012	0.014	0.0161	0.0182	0.0206	0.0229	0.0258	0.029	0.0323
in cyclohexanone	0.000906	0.000913	0.000917	0.000927	0.000938	0.000954	0.000967	0.000991	0.00101
in ethanol	0.00104	0.00118	0.00133	0.00147	0.00164	0.0018	0.00204	0.00232	0.0026
in ethyl acetate	8.84e-05	9.96e-05	0.000109	0.00012	0.000131	0.000143	0.000157	0.000175	0.000193
in n-butanol	0.000318	0.000405	0.000498	0.000597	0.000699	0.000798	0.000947	0.00111	0.00131
